What was measured:
[1] = tested on: clot formation in whole blood; assay: TEG of whole blood, coagulation triggered by kaolin (Example I); format: cell-based; conditions: for α: buffer 44.9 degrees; for MA: buffer 63.1 mm; for R: buffer 6.8 minutes
Method: TEG is a waveform generated from serial measurements of the torque transmitted from a small oscillating cup to the tip of a metal pin inserted into the cup by a 360 microliter sample of blood or plasma added to the cup.
A 360 microliter blood sample has been added to the cup. For 180 minutes after the sample is added, the cup oscillates alternatively clockwise and counterclockwise through an arc of 4° 45′ at a frequency of one oscillation cycle—i. e., one clockwise rotation and one counterclockwise rotation—every 10 seconds. The lower end of the pin is immersed by the sample; the upper end is suspended from a torsion wire. The TEG analyzer records a single measurement of rotation-induced torque after each clockwise rotation and after each counterclockwise rotation of the cup. “The torque of the rotating cup is transmitted to the immersed pin only after fibrin-platelet bonding has linked the cup and [the] pin together. The strength of these fibrin-platelet bonds affects the magnitude of the pin motion, such that strong clots move the pin directly in phase with the cup motion. Thus, the magnitude of the output is directly related to the strength of the formed clot . . . . [If] the clot retracts or lyses, these bonds are broken and the transfer of cup motion is diminished. The rotation movement of the pin is converted by a mechanical-electrical transducer to an electrical signal which can be monitored by a computer” (TEG 5000 User Manual, pp 3-4, 1999-2007)). The computer converts the series of electrical signals into the TEG tracing.
In the absence of an anticoagulant (A), R was 6.8 minutes, α was 44.9 degrees, and MA was 63.1 mm. […] Thus, each aptamer, to varying degrees, prolonged the time to clot formation, reduced the rate of clot strengthening, and reduced the ultimate strength of the clot. However, as was true in the previous experiment, no aptamer acting alone at the concentrations tested prevented clot formation.

human blood = assay: Ex vivo extracorporeal oxygenator minicircuit with ACT+ monitoring; conditions: human blood in ex vivo minicircuit; average donor baseline 115 seconds; FIG. 25 doses: UFH 5 U/mL, 9.3T 1 μM, 11F7T 2 μM, R9D-14T 5 μM, 11F7T 0.5 μM+R9D-14T 5 μM
Method: The extracorporeal minicircuit consisted of a sample line, custom-designed 8 mL Plexiglas® venous reservoir, a mechanical roller pump (MasterFlex®; Cole-Parmer Instrument Co., Vernon Hills, Ill.), and a custom-designed small-volume oxygenator that are all connected by MasterFlex precision silicone tubing (Cole-Parmer Instrument Co.) (de Lange et al, Br J Anaesth 99:177-83 (2007), de Lange et al, J Cardiothorac Surg 3:51 (2008). The 4 mL priming volume oxygenator is comprised of two Plexiglas® shells (12.8 cm×12.8 cm×2.7 cm) that cover a disposable three layer artificial diffusion membrane comprised of hollow polypropylene fibers glued together in a crosswise fashion. The surface area available for gas exchange is 558 cm^2. To prevent heat loss, one of the shells has an integrated heat exchanger, and the temperature was maintained at approximately 33° C. with a circulating water bath system (Gaymar Industries, Orchard Park, N.Y.). A MEAS reusable temperature probe (Model 451, Measurement Specialties Inc., Dayton, Ohio) was inserted into the reservoir to continuously measure the temperature, and an in-line flow probe (2N806 flow probe and T208 volume flowmeter; Transonics Systems, Inc., Ithaca, N.Y.) was used to continuously measure the blood flow. The circuit blood O2 level was maintained at 95% and the CO2 was maintained at 5%.
The minicircuit was primed with phosphate buffered saline (PBS) at a flow rate of 50 mL/min for approximately 30 min. Blood was drawn from healthy, consented volunteers and anticoagulated with 3.2% sodium citrate. Approximately 25 mL of citrated blood was incubated with 500 μL of anticoagulant (i.e., UFH or aptamer) at 37° C. for 5 min. The PBS was drained from the minicircuit, and the blood was added and circulated at a rate of 50 mL/min with 95% O2/5% CO2 at approximately 33° C. […] The venous blood gases were analyzed with a GEM Premier 3000 blood gas/electrolyte analyzer (model 5700; Instrumentation Laboratories, Inc, Lexington, Mass.) to determine the hematocrit, CaCl2, O2, and CO2 levels. […]

Work on “R9D-14T: prothrombin/thrombin aptamer, 58-base truncation of RNA9D-14, SEQ ID NO: 3 (GGCGGTCGATCACACAGTTCAAACGTAATAAGCCAATGTACGAGGCAGACGACTCGCC; 2'-fluoro at CT, RNA at AG, backbone and T or U not given here) [Aptamer R9D-14T]” yielded a α ([1]; 5.0 micromolar, kaolin) of 18.6 degrees, an MA ([1]; 5.0 micromolar, kaolin) of 42.5 mm and an R ([1]; 5.0 micromolar, kaolin) of 31.3 min. The “ACT+ maximal clotting time” value (human blood) was 365 s.

With “11F7T: FXa aptamer, 2'-fluoropyrimidine modified RNA, SEQ ID NO: 2 (GAGAGCCCCAGCGAGAUAAUACUUGGCCCCGCUCUU; 2'-fluoro at CU, RNA at AG, backbone not given here) [Aptamer 11F7T]” the α ([1]; 2.0 micromolar, kaolin) was 29.8 degrees, the MA ([1]; 2.0 micromolar, kaolin) was 48.4 mm and the R ([1]; 2.0 micromolar, kaolin) was 22.5 min. For the same substance, the “clot formation in TEG assays, single agents (in words)” value ([1]; data not shown) was “delay, but do not prevent clot formation” and the “ACT+ maximal clotting time” value (human blood) was 213 s.

In the case of “9.3T: FIXa aptamer, 2'-fluoropyrimidine modified RNA, SEQ ID NO: 1 (AUGGGGACUAUACCGCGUAAUGCUGCCUCCCCAU; 2'-fluoro at CU, RNA at AG, backbone not given here) [Aptamer 9.3T]”, the α ([1]; 2.0 micromolar, kaolin) is reported as 36.6 degrees, the MA ([1]; 2.0 micromolar, kaolin) is reported as 58.6 mm and the R ([1]; 2.0 micromolar, kaolin) is reported as 29.2 min. For the same substance, the “time of clot formation (bifurcation)” value ([1]; FIXa aptamer 0.5 micromolar, kaolin) was 22.1 min and the “ACT+ maximal clotting time” value (human blood) was “had no effect”.
